Source: US10982293B2, “Methods for improving plant resistance to soybean cyst nematode and compositions thereof” (Monsanto Technology LLC, priority 2014, dated 2021)

Assays:
Assay type in all cases: in vivo, Heterodera glycines
race 2 SCN = experiment: Greenhouse study: SCN cysts on roots of soybean grown from treated seed, race 2 SCN challenge; details: seed treatment, 2000-3000 SCN eggs, cysts counted after 28-30 days, mean of 6-8 replications, FIG. 3
Description: Various soybean lines were treated with the compound 3-phenyl-5-(thiophen-2-yl)-1,2,4-oxadiazole following standard industry protocols. The structure of 3-phenyl-5-(thiophen-2-yl)-1,2,4-oxadiazole is:
(§1) Untreated seed or seed treated only with a colorant were used as standard controls. Single soybean seed were planted in 3″×3″ pots filled with field soil mixed with sand and steam sterilized. Ten days after germination seedlings were inoculated with 2000-3000 SCN eggs isolated from cultures maintained on the appropriate soybean germplasm to maintain designated race. After inoculation, soil temperatures were maintained at 28° C. with 16-hour day-length for 28-30 days. On the last day of the incubation period, individual plants were uprooted. Cysts from each plant were collected by blasting the roots with pressurized water and washing the soil while trapping the released cysts on sieves. The collected cysts from individual plants were transferred to a counting dish. The total number of cysts from individual plants was counted under a dissecting microscope. Data is reported as the number of cysts collected from an individual pot and represent the mean of 6-8 replications.
All plants were treated with ACCELERON® (Monsanto Company, St. Louis, Mo., USA) to reduce fungal disease.

SCN [1] = experiment: Greenhouse trials: susceptible soybean line challenged with SCN with and without the compound (all plants with Acceleron); details: presence vs absence of the compound, all plants treated with ACCELERON
Description: as §1, with “3''×3''” for “3″×3″”, “replications. […] All plants were treated with […]® (Monsanto Company, St. Louis, Mo., USA) to reduce fungal disease.” for “replications.”

[2] = tested on: race 1 soybean cyst nematodes; experiment: Field tests: yield of treated and untreated soybean lines in race 1 SCN fields; details: for yield, treated vs untreated: race 1 SCN
Description: Prior to planting, seeds were treated with chemistry according to standard industry protocols. Six different untreated and treated lines were planted in eight plots. The six lines were selected based on resistance reaction to race 1 and race 3 SCN. […] The levels of resistance were determined essentially as described by Schmitt, D. P. and Shannon, G., Crop Sci., 32:275-277 (1992), according to Table 4. Soil cores were collected at emergence near the root zone of the plant. Multiple soil samples were taken, combined, and crushed into small evenly-sized particles. A sample aliquot was combined with water allowed to sit, then stirred. The sample was then poured into a funnel and processed in a soil elutriator. The sample was counted, with a final number being given as eggs per 100 cc of soil. Based on the number of eggs per 100 cc of soil, the field was classified as low to high pressure, where about 0 to about 180 eggs per 100 cc of soil was considered to be low pressure, about 180 eggs to about 1100 eggs per 100 cc of soil was considered to be medium pressure, and greater than about 1100 eggs per 100 cc of soil was considered to be high pressure. Lines were planted in four medium and four high pressure fields containing race 1 soybean cyst nematodes. The medium pressure fields contained 536 eggs per 100 cc of soil while the high pressure fields contained 1645 eggs per 100 cc of soil. Yield was determined at harvest. The lines derived from Peking germplasm provided protection against race 1 SCN while the lines derived from PI88788 germplasm provided protection against race 3 SCN.

SCN [3] = experiment: Field trials (43): yield of treated PI88788-derived soybean lines under moderate to high nematode pressure; details: seed treatment 0.50 mg AI/seed with Fungicide + Insecticide (Base 2); adjusted to 13% moisture
Source text: Eleven different untreated and treated lines were planted in a total of 43 separate field trials with a single variety per location. The eleven lines were selected based on their resistance reactions to race 3 SCN. The eleven lines were developed from PI88788 source germplasm and display either moderate resistance or resistance to race 3 SCN. 3-Phenyl-5-(thiophen-2-yl)-1,2,4-oxadiazole was combined with commercial fungicides and insecticides in a tank slurry mix with colorant, polymer, and water at the recommended rates and allowed to mix thoroughly. Using a Gustafson continuous batch seed coater the seed batch was loaded, the treatment slurry was injected and the mixture was allowed to tumble for 35-40 seconds before being ejected into a paper storage bag. […] Sub-samples (˜ 1 pint of soil) were taken from each composite sample and placed in a plastic bag, with appropriate handling to ensure viability of nematodes, and sent to a lab for nematode quantification. […] Quantitative in-season nematode sampling using root and soil samples was conducted eight weeks after planting for trials. […] Samples were sent to a lab for nematode quantification. […] The data were calculated to represent bushels per acre by taking the grain weight over the square footage of each plot and adjusting to 13% moisture.

With c1ccc(-c2noc(-c3cccs3)n2)cc1 [3-phenyl-5-(thiophen-2-yl)-1,2,4-oxadiazole] the “resistance to race 2 SCN (number of SCN cysts on soybean roots)” value (race 2 SCN) was “enhances resistance to race 2 SCN”, the SCN cyst counts (SCN [1]) was “lower SCN cyst counts” and the “yield, treated vs untreated” value ([2]; high pressure field, 1645 eggs per 100 cc soil, Peking-moderately resistant (Line 2) and PI88788-moderately resistant (Line 5), FIG. 6) was “unexpected statistically higher yield”. For the same molecule, the “yield, treated vs untreated” value ([2]; high pressure field, 1645 eggs per 100 cc soil, Peking-resistant (Line 3), PI88788-sensitive (Line 4), PI88788-resistant (Line 6)) was “no statistical difference”, the “yield, treated vs untreated” value ([2]; high pressure field, 1645 eggs per 100 cc soil, Peking-sensitive line (Line 1)) was “statistically higher yield than untreated” and the “yield advantage compared to untreated” value ([2]; high pressure field, average of the two moderately resistant lines) was 5.8 bushel per acre. The “yield in field tests (legend of FIG. 6)” value ([2]; high race 1 SCN pressure, about 1645 SCN eggs/100 cc soil) was “increase in yield”, the “yield in field tests (legend of FIG. 5)” value ([2]; low race 1 SCN pressure, about 536 SCN eggs/100 cc soil) was “increase in yield” and the “yield, treated vs untreated” value ([2]; medium pressure field, 536 eggs per 100 cc soil, Peking or PI88788 sensitive, moderately resistant and resistant lines, FIG. 5) was “No statistical difference in yield”. For the same molecule, the “Average Yield” value (SCN [3]) was 55.7 BU/A.
